Laboratory results taken from patent US20070129359A1, “Tetrahydronaphthalene derivatives, processes for their preparation and their use as antiinflammatory agents” (priority 2005, published 2007).

Experiments:
[1] = test system: IL-8 secretion in the human THP-1 monocyte cell line; experiment: inhibition of LPS-induced IL-8 secretion in THP-1 cells (ELISA); type: cell-based
Protocol: The compounds of the invention of the general formula (I) inhibit the secretion, induced by lipopolysaccharide (LPS), of the cytokine IL-8 in the human THP-1 monocyte cell line. The concentration of the cytokines was determined in the supernatant using a commercially available ELISA kit.

[2] = molecular target: T1, glucocorticoid receptor (GR) (Homo sapiens, UniProt P04150); experiment: binding to the glucocorticoid receptor (recombinant receptor, Sf9 cytosol); details: cytosol of Sf9 cells, reference [3H]-dexamethasone
T1 construct: made in house; host or cells: Sf9 cells infected with recombinant baculovirus (cytosol preparation)
T1 sequence (P04150 1-777): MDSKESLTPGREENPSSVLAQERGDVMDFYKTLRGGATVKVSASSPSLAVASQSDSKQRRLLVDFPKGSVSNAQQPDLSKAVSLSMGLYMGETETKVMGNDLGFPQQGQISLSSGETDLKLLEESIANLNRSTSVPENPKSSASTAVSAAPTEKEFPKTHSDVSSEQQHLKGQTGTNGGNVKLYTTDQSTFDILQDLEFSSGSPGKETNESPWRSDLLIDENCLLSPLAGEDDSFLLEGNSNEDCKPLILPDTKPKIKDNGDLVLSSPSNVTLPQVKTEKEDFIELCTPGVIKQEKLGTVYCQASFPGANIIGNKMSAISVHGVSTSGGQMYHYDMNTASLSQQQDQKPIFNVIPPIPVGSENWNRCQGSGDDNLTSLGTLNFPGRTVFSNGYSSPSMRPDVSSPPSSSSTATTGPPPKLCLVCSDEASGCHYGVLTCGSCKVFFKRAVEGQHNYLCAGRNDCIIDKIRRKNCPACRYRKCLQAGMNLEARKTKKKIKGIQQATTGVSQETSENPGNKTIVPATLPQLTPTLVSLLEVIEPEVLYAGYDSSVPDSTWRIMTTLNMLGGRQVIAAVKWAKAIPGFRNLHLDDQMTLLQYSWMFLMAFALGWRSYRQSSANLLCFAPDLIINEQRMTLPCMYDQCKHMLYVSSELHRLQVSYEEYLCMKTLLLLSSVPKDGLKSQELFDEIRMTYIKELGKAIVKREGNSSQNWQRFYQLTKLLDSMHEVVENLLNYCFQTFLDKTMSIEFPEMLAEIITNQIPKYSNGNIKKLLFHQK
Excerpt: (§1) The binding of the substances to the glucocorticoid receptor (GR) and further steroid hormone receptors (mineral corticoid receptor (MR), progesterone receptor (PR) and androgen receptor (AR)) is examined with the aid of recombinantly prepared receptors. Cytosol preparations of Sf9 cells which had been infected with recombinant baculoviruses which code for the GR are employed for the binding studies. Compared with the reference substance [^3H]-dexamethasone, the substances show a high affinity for the GR.

[3] = molecular target: T2, progesterone receptor (PR) (Homo sapiens, UniProt P06401); experiment: binding to the progesterone receptor (recombinantly prepared receptor)
T2 construct: made in house
T2 sequence (P06401 1-933): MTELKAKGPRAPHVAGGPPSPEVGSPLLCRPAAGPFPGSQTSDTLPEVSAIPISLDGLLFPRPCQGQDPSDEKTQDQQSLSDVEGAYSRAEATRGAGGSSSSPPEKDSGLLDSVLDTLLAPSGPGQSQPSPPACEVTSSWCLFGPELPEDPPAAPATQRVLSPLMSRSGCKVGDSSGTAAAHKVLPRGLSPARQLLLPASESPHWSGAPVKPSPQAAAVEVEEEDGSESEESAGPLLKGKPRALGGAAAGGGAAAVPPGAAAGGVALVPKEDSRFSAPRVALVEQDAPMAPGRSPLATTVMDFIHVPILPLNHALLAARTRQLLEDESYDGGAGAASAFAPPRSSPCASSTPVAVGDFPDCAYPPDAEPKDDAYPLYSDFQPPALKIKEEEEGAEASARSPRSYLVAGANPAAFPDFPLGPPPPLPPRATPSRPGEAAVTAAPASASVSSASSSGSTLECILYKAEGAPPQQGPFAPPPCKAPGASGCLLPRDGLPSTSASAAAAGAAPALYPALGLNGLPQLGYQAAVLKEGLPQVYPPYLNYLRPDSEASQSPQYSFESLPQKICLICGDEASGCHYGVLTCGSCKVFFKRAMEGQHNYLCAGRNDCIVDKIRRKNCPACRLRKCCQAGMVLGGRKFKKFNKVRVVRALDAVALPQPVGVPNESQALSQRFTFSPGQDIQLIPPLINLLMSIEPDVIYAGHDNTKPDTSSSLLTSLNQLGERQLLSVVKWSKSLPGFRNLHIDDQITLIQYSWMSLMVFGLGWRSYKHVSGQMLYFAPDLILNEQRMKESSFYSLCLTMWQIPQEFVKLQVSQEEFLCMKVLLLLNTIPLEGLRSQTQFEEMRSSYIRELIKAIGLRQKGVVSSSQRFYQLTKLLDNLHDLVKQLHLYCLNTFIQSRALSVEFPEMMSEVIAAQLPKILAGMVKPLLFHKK
Excerpt: as §1

**Q.** How did the IC50 ([1]; LPS, ELISA of supernatant, read-out: IC50(ILB) inhibition of LPS-induced IL-8 secretion) turn out when `COc1c(F)ccc2c1C(C)(C)C[C@@](O)(C(F)(F)F)[C@@H]2NC(=O)Nc1ccc2ccccc2c1` [Example 3E] was run?
**A.** Its IC50 is 1000 nM.

**Q.** And the “efficiency with regard to [3H]-dexamethasone as standard” value ([1]; LPS-induced IL-8 secretion)?
**A.** The value was 11%.

**Q.** Which IC50 [2] does the source give for `CC1(C)C[C@@](O)(C(F)(F)F)[C@H](NC(=O)c2ccc3occc3c2)c2ccc(F)c(O)c21` (relative stereo) [Example 3L, N-(cis-6-fluoro-2,5-dihydroxy-4,4-dimethyl-2-trifluoro-methyl-1,2,3,4-tetrahydronaphthalen-1-yl)benzofuran-5-carboxamide] here?
**A.** The IC50 was 36 nM.

**Q.** What about the IC50 [3] of the same molecule?
**A.** Its IC50 is > 1000 nM.
